Tests used:
Assay type in all cases: physicochemical
[1] = Hygroscopicity classification applying the Pharmacopeia rules
Source text: The shear cell was fully filled with a sample of powder of the compound of formula (I) thereby preventing condensing the powder. Both samples, sample 1 and sample 2, were classified as non-hydroscopic applying the Pharmacopeia rules.

[2] = Determination of bulk density during shear tests; conditions: during shear test
Description: Because of the normal stress of 1.5 kPa applied on the top of the lid during the shear test the lid lowers into the shear cell and compresses the powder.
During the shear tests this lowering of the lid is measured and recorded. Since the volume of the bottom ring is known and weight of the sample measured before the beginning of the shear test the bulk density of the sample during the shear test is calculated
[formula] • with: • ρb,shear: Bulk density under shear • mges: total mass of shear cell including powder sample (w/o lid) • mcell: net mass of shear cell (w/o powder sample, w/o lid) • hc: height of the bottom ring • hl: lowering of lid • Acell: bottom area of shear cell
The calculation of the bulk density is done automatically with the evaluation software provided together with the shear tester.

[3] = Particle size distribution by laser diffraction (Malvern Panalytical Mastersizer 3000, Fraunhofer)
Description: The particle size distribution was measured by laser diffraction using the Malvern Panalytical Mastersizer 3000.
The samples are again taken from example 1.6 (probe 1) and example 1.5 (probe 2), the same as used in example 4.
The sample to be analyzed is dispersed in 1 drop of Tween 80 the sample is processed according to ISO13320.
Laser diffraction is an often-used method for determination the particle size of dispersed solid materials. A widened laser beam illuminates a cuvette which contains part of the particles. By diffraction on the particles a characteristic pattern can be mapped on the detector. The resulting diffraction image is the additive overlaying of diffraction images of all particles.
Besides the mentioned detector two additional detectors are mounted in order to detect diffraction light in forward direction (FA1,9), in wide angle (LA1,2) and in back direction (BS1,2). The turbidity of the sample is measured by an extinction sensor. This is necessary to ensure a low particle concentration which is necessary to avoid wrong results by multiple diffraction of light at several particles.
The cuvette used was a wet unit where the suspension is pumped in a closed circuit with a dispersing unit that ensures a separation of single particles by shear forces.
The measurement range of the Malvern 3000 covers a particle size from 1 mm (2 mm) down to 20 nm
The calculation of the particle size distribution from the diffraction patterns was done on basis of theory of Fraunhofer.
This assumption is valid for particle sizes of 10 to 50 μm and above. For smaller particles the light scattering of the particle itself due to optical transparency must be considered which is done in the Mie-theory (not used for our probes). Precondition of the application of the Mie-theory is the knowledge of the refractive and absorption index of the dispersed solids.
Q3 is the cumulative volume distribution, e.g. D50=Q(50%) indicates 50% of the volume part of the sample is smaller than particle size of 50 μm.
The particle size is expressed as an equivalent diameter used in the method recommended by the Malvern Analysis Program and as described in ISO13320.

[4] = without ultrasound (US), listed as Probe 2

- hygroscopicity classification [1]: non-hydroscopic
- bulk density compared with sample 1 (FIG. 22) [2]: significantly higher
- bulk density ([2]; normal stress 1.5 kPa): about 550 kg/m^3
- difference between Q3[50] of untreated sample and sample treated 300 s with ultrasound [3]: significantly smaller
- D(10) ([3]; 300 s US, listed as Probe2): 14.5 μm
- D(50) ([3]; 300 s US, listed as Probe2): 57.3 μm
- D(90) ([3]; 300 s US, listed as Probe2): 170 μm
- Cumulative volume distribution Q ([3]; particle size D 0.01 μm, 300 s US): 0%
- Cumulative volume distribution Q ([3]; particle size D 0.01 μm, without US): 0%
- Cumulative volume distribution Q ([3]; particle size D 0.0114 μm, 300 s US): 0%
- Cumulative volume distribution Q ([3]; particle size D 0.0114 μm, without US): 0%
- Cumulative volume distribution Q ([3]; particle size D 0.0129 μm, 300 s US): 0%
- Cumulative volume distribution Q ([3]; particle size D 0.0129 μm, without US): 0%
- Cumulative volume distribution Q ([3]; particle size D 0.0147 μm, 300 s US): 0%
- Cumulative volume distribution Q ([3]; particle size D 0.0147 μm, without US): 0%
- Cumulative volume distribution Q ([3]; particle size D 0.0167 μm, 300 s US): 0%
- Cumulative volume distribution Q ([3]; particle size D 0.0167 μm, without US): 0%
- Cumulative volume distribution Q ([3]; particle size D 0.0189 μm, 300 s US): 0%
- Cumulative volume distribution Q ([3]; particle size D 0.0189 μm, without US): 0%
- Cumulative volume distribution Q ([3]; particle size D 0.0215 μm, 300 s US): 0%
- Cumulative volume distribution Q ([3]; particle size D 0.0215 μm, without US): 0%
- Cumulative volume distribution Q ([3]; particle size D 0.0244 μm, 300 s US): 0%
- Cumulative volume distribution Q ([3]; particle size D 0.0244 μm, without US): 0%
- Cumulative volume distribution Q ([3]; particle size D 0.0278 μm, 300 s US): 0%
- Cumulative volume distribution Q ([3]; particle size D 0.0278 μm, without US): 0%
- Cumulative volume distribution Q ([3]; particle size D 0.0315 μm, 300 s US): 0%
- Cumulative volume distribution Q ([3]; particle size D 0.0315 μm, without US): 0%
- Cumulative volume distribution Q ([3]; particle size D 0.0358 μm, 300 s US): 0%
- Cumulative volume distribution Q ([3]; particle size D 0.0358 μm, without US): 0%
- Cumulative volume distribution Q ([3]; particle size D 0.0407 μm, 300 s US): 0%
- Cumulative volume distribution Q ([3]; particle size D 0.0407 μm, without US): 0%
- Cumulative volume distribution Q ([3]; particle size D 756 μm, 300 s US): 100%
- Cumulative volume distribution Q ([3]; particle size D 756 μm, without US, listed as Probe 2): 99.65%
- Cumulative volume distribution Q ([3]; particle size D 859 μm, 300 s US): 100%
- Cumulative volume distribution Q ([3]; particle size D 859 μm, without US, listed as Probe 2): 99.9%
- Cumulative volume distribution Q ([3]; particle size D 976 μm, 300 s US): 100%
- Cumulative volume distribution Q ([3]; particle size D 976 μm, without US, listed as Probe 2): 100%
- Cumulative volume distribution Q ([3]; particle size D 1110 μm, 300 s US): 100%
- Cumulative volume distribution Q ([3]; particle size D 1110 μm, without US): 100%
- Cumulative volume distribution Q ([3]; particle size D 1260 μm, 300 s US): 100%
- Cumulative volume distribution Q ([3]; particle size D 1260 μm, without US): 100%
- Cumulative volume distribution Q ([3]; particle size D 1430 μm, 300 s US): 100%
- Cumulative volume distribution Q ([3]; particle size D 1430 μm, without US): 100%
- Cumulative volume distribution Q ([3]; particle size D 1630 μm, 300 s US): 100%
- Cumulative volume distribution Q ([3]; particle size D 1630 μm, without US): 100%
- Cumulative volume distribution Q ([3]; particle size D 1850 μm, 300 s US): 100%
- Cumulative volume distribution Q ([3]; particle size D 1850 μm, without US): 100%
- Cumulative volume distribution Q ([3]; particle size D 2100 μm, 300 s US): 100%
- Cumulative volume distribution Q ([3]; particle size D 2100 μm, without US): 100%
- Cumulative volume distribution Q ([3]; particle size D 2390 μm, 300 s US): 100%
- Cumulative volume distribution Q ([3]; particle size D 2390 μm, without US): 100%
- Cumulative volume distribution Q ([3]; particle size D 2710 μm, 300 s US): 100%
- Cumulative volume distribution Q ([3]; particle size D 2710 μm, without US): 100%
- Cumulative volume distribution Q ([3]; particle size D 3080 μm, 300 s US): 100%
- Cumulative volume distribution Q ([3]; particle size D 3080 μm, without US): 100%
- Cumulative volume distribution Q ([3]; particle size D 3500 μm, 300 s US): 100%
- Cumulative volume distribution Q ([3]; particle size D 3500 μm, without US): 100%
- robustness of crystals ([3]; ultrasound treatment, compared to polymorph A): more robust
- D(10) [3, 4]: 69.1 μm
- D(50) [3, 4]: 179 μm
- D(90) [3, 4]: 380 μm
Structure (SMILES): C[C@@H]1OC(=O)NN=C1c1ccc(-c2ccc(F)cc2)c(C(F)(F)F)c1 [polymorph C, (6S)-5-[4′-Fluoro-2-(trifluoromethyl)biphenyl-4-yl]-6-methyl-3,6-dihydro-2H-1,3,4-oxadiazin-2-one]

Reference: US20260258004A1, “CRYSTALLINE FORMS OF (6S)-5-[4'-FLUORO-2-(TRIFLUOROMETHYL)BIPHENYL-4-YL]-6-METHYL-3,6- DIHYDRO-2H-l,3,4-OXADIAZIN-2-ONE” (Bayer Aktiengesellschaft, priority 2022, published 2026)
